Molecules are shown by their SMILES.

For the experiment, the target named is T1, human GPR40 (Homo sapiens, UniProt O14842).
T1 construct: expressed in transfected cells
Description: Inositol Phosphate Turnover (IP1) Assay. To be noted: HEK cells stably expressing human GPR40; CisBio IP-One kit; 60 minutes at 37 degrees; read-out: Human IP1 EC50. The class given is cell-based. A digest of the protocol:
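HEK cells stably expressing GPR40, plated 16 h, then exposed to compound in stimulation buffer for 60 min at 37 °C. IP1 accumulation read by HTRF IP-One detection after 60 min at RT.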

T1 sequence (O14842 whole entry): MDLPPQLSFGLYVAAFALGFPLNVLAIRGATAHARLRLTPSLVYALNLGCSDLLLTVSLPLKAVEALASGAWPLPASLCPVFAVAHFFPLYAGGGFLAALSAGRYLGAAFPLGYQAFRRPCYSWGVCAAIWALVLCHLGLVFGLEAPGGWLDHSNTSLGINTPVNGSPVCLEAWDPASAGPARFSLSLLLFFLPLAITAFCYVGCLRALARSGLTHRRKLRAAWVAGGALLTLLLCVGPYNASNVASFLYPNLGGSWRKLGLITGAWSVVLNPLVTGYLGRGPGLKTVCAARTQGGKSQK

In the case of `C[C@H](C(=O)O)[C@H](c1ccc2c(c1F)OC1(CC2)CCN(Cc2cc(C(F)(F)F)ccc2C(F)(F)F)CC1)C1CC1` [Example 8, (2S,3R)-3-(1′-(2,5-bis-(trifluoromethyl)benzyl)-8-fluoro-spiro[chroman-2,4′-piperidin]-7-yl)-3-cyclopropyl-2-methyl-propanoic acid], the EC50 (as a rule, the concentration needed to bring the measured effect to its halfway point) turned out to be 20.6 nM.

For the compound `C[C@H](C(=O)O)[C@H](c1ccc2c(c1F)OC1(CC2)CCN(Cc2cc(Cl)ccc2OC(F)F)CC1)C1CC1` [Example 20, (2S,3R)-3-(1′-(5-chloro-2-(difluoromethoxy)benzyl)-8-fluorospiro[chroman-2,4′-piperidin]-7-yl)-3-cyclopropyl-2-methylpropanoic Acid], the EC50 came to 13.5 nM.

`CC(c1cc(Cl)ccc1OC(F)(F)F)N1CCC2(CCc3ccc([C@H](C4CC4)[C@H](C)C(=O)O)c(F)c3O2)CC1` (stereo partly drawn) [Example 21, (2S,3R)-3-(1′-(1-(5-chloro-2-(trifluoromethoxy)phenyl)ethyl)-8-fluorospiro[chroman-2,4′-piperidin]-7-yl)-3-cyclopropyl-2-methylpropanoic Acid]: the half-maximal effective concentration (EC50) came to 3.66 nM.

Turning to `C[C@H](C(=O)O)[C@H](c1ccc2c(c1)OC1(CC2)CCN(c2cccnc2C(F)(F)F)CC1)C1CC1` [Example 22, sodium (2S,3R)-3-cyclopropyl-2-methyl-3-(1′-(2-(trifluoromethyl)pyridin-3-yl)spiro[chroman-2,4′-piperidin]-7-yl)propanoate], the EC50 came to 38.3 nM.

As to `C[C@H](C(=O)O)[C@H](c1ccc2c(c1)OC1(CC2)CCN(S(=O)(=O)c2cc(C(F)(F)F)ccc2C(F)(F)F)CC1)C1CC1` [Example 23, (2S,3R)-3-(1′-((2,5-bis(trifluoromethyl)phenyl)sulfonyl)spiro[chroman-2,4′-piperidin]-7-yl)-3-cyclopropyl-2-methylpropanoic Acid], the EC50 is 14.3 nM.

`C[C@H](C(=O)O)[C@H](c1ccc2c(c1)OC1(CC2)CCN(Cc2cc(C(F)(F)F)cc(Cl)c2F)CC1)C1CC1` [Example 24, (2S,3R)-3-(1′-(3-chloro-2-fluoro-5-(trifluoromethyl)benzyl)spiro[chroman-2,4′-piperidin]-7-yl)-3-cyclopropyl-2-methylpropanoic Acid]: the EC50 worked out at 11.2 nM.

As to `C[C@H](C(=O)O)[C@H](c1ccc2c(c1)OC1(CC2)CCN(S(=O)(=O)c2cc(C(F)(F)F)ccc2Cl)CC1)C1CC1` [Example 25, (2S,3R)-3-(1′-((2-chloro-5-(trifluoromethyl)phenyl)sulfonyl)spiro[chroman-2,4′-piperidin]-7-yl)-3-cyclopropyl-2-methylpropanoic Acid], the EC50 stood at 18.3 nM.

In the case of `C[C@H](C(=O)O)[C@H](c1ccc2c(c1)OC1(CC2)CCN(S(=O)(=O)c2ccc(C(F)(F)F)cc2Cl)CC1)C1CC1` [Example 26, (2S,3R)-3-(1′-((2-chloro-4-(trifluoromethyl)-phenyl)sulfonyl)spiro [chroman-2,4′-piperidin]-7-yl)-3-cyclopropyl-2-methylpropanoic acid], the EC50 was determined as 97.8 nM.

On to `C[C@H](C(=O)O)[C@H](c1ccc2c(c1)OC1(CC2)CCN(Cc2cc(C(F)(F)F)ccc2F)CC1)C1CC1` [Example 27, (2S,3R)-3-cyclopropyl-3-(1′-(2-fluoro-5-(trifluoromethyl)benzyl)spiro-[chroman-2,4′-piperidin]-7-yl)-2-methylpropanoic Acid], for which the EC50 came to 49.5 nM.

Consider `C[C@H](C(=O)O)[C@H](c1ccc2c(c1)OC1(CC2)CCN(Cc2nc(C(F)(F)F)ccc2Cl)CC1)C1CC1` [Example 32, (2S,3R)-3-(1′-((3-chloro-6-(trifluoromethyl)-pyridin-2-yl)methyl)-spiro-[chroman-2,4′-piperidin]-7-yl)-3-cyclopropyl-2-methylpropanoic acid], for which the EC50 came to 177 nM.

In the case of `C[C@H](C(=O)O)[C@H](c1ccc2c(c1)OC1(CC2)CCN(c2ccccc2C(F)(F)F)CC1)C1CC1` [Example 35, sodium (2S,3R)-3-cyclopropyl-2-methyl-3-(1′-(2-(trifluoromethyl)phenyl)-spiro[chroman-2,4′-piperidin]-7-yl)propanoate], the EC50 was 5.79 nM.

`C[C@H](C(=O)O)[C@H](c1ccc2c(c1)OC1(CC2)CCN(c2cccc3c2c(C(F)(F)F)nn3C)CC1)C1CC1` [Example 36, (2S,3R)-3-cyclopropyl-2-methyl-3-(1′-(1-methyl-3-(trifluoromethyl)-1H-indazol-4-yl)spiro[chroman-2,4′-piperidin]-7-yl)propanoic Acid]: the EC50 is 4.78 nM.

Consider `C[C@H](C(=O)O)[C@H](c1ccc2c(c1)OC1(CC2)CCN(c2ccc3c(C(F)(F)F)nn(C)c3c2)CC1)C1CC1` [Example 37, (2S,3R)-3-cyclopropyl-2-methyl-3-(1′-(1-methyl-3-(trifluoromethyl)-1H-indazol-6-yl)spiro[chroman-2,4′-piperidin]-7-yl)-propanoic acid], for which the EC50 was found to be 683 nM.

Turning to `C[C@H](C(=O)O)[C@H](c1ccc2c(c1)OC1(CC2)CCN(c2ccc3c(c2)c(C(F)(F)F)nn3C)CC1)C1CC1` [Example 38, (2S,3R)-3-cyclopropyl-2-methyl-3-(1′-(1-methyl-3-(trifluoromethyl)-1H-indazol-5-yl)spiro[chroman-2,4′-piperidin]-7-yl)propanoic acid], the EC50 stood at 506 nM.

Turning to `C[C@H](C(=O)O)[C@H](c1ccc2c(c1)OC1(CC2)CCN(c2cncc(C(F)(F)F)c2)CC1)C1CC1` [Example 39, (2S,3R)-3-cyclopropyl-2-methyl-3-(1′-(5-(trifluoromethyl)pyridin-3-yl)Spiro [chroman-2,4′-piperidin]-7-yl)propanoic Acid], the concentration for a half-maximal effect (EC50) was found to be 566 nM.

`C[C@H](C(=O)O)[C@H](c1ccc2c(c1)OC1(CC2)CCN(c2ccnc(C(F)(F)F)c2)CC1)C1CC1` [Example 40, (2S,3R)-3-cyclopropyl-2-methyl-3-(1′-(2-(trifluoromethyl)pyridin-4-yl)spiro-[chroman-2,4′-piperidin]-7-yl)propanoic Acid]: the 50% effective concentration (EC50) stood at 167 nM.

Regarding `C[C@H](C(=O)O)[C@H](c1ccc2c(c1)OC1(CC2)CCN(c2cccc(C(F)(F)F)c2)CC1)C1CC1` [Example 41, (2S,3R)-3-cyclopropyl-2-methyl-3-(1′-(3-(trifluoromethyl)phenyl)spiro[chroman-2,4′-piperidin]-7-yl)propanoic acid], the EC50 was determined as 12.9 nM.

As for `C[C@H](C(=O)O)[C@H](c1ccc2c(c1)OC1(CC2)CCN(S(=O)(=O)c2ccc(Cl)cc2Cl)CC1)C1CC1` [Example 45], the EC50 was found to be 148 nM.

As for `C[C@H](C(=O)O)[C@H](c1ccc2c(c1)OC1(CC2)CCN(S(=O)(=O)c2cc(Cl)ccc2Cl)CC1)C1CC1` [Example 46, (2S,3R)-3-cyclopropyl-3-(1′-((2,5-dichloro-phenyl)sulfonyl)spiro [chroman-2,4′-piperidin]-7-yl)-2-methyl-propanoic acid], the EC50 is 22.6 nM.

Consider `Cc1nc(C(F)(F)F)c(CN2CCC3(CCc4ccc([C@H](C5CC5)[C@H](C)C(=O)O)cc4O3)CC2)s1` [Example 53, (2S,3R)-3-cyclopropyl-2-methyl-3-(1′-((2-methyl-4-(trifluoromethyl)thiazol-5-yl)methyl)spiro[chroman-2,4′-piperidin]-7-yl)propanoic Acid], for which the 50% effective concentration (EC50) came to 107 nM.

For `CC(c1cc(C(F)(F)F)cc(C(F)(F)F)c1)N1CCC2(CCc3ccc([C@H](C4CC4)[C@H](C)C(=O)O)cc3O2)CC1` (stereo partly drawn) [Example 54, (2S,3R)-3-(1′-(1-(3,5-bis(trifluoromethyl)phenyl)ethyl)spiro[chroman-2,4′-piperidin]-7-yl)-3-cyclopropyl-2-methylpropanoic Acid], the EC50 turned out to be 6.47 nM.

As for `COc1cc(N2CCC3(CCc4ccc([C@H](C5CC5)[C@H](C)C(=O)O)cc4O3)CC2)c(Cl)cn1` [Example 55, (2S,3R)-3-(1′-(5-chloro-2-methoxypyridin-4-yl)spiro[chroman-2,4′-piperidin]-7-yl)-3-cyclopropyl-2-methylpropanoic Acid], the 50% effective concentration (EC50) is 7.59 nM.

Regarding `C[C@H](C(=O)O)[C@H](c1ccc2c(c1)OC1(CC2)CCN(c2ccnc(C(F)(F)F)n2)CC1)C1CC1` [Example 56, sodium (2S3R)-3-cyclopropyl-2-methyl-3-(1′-(2-(trifluoromethyl)pyrimidin-4-yl)spiro[chroman-2,4′-piperidin]-7-yl)propanoate], the half-maximal effective concentration (EC50) was 856 nM.

As for `C[C@H](C(=O)O)[C@H](c1ccc2c(c1)OC1(CC2)CCN(c2cc(C(F)(F)F)ccc2C(F)(F)F)CC1)C1CC1` [Example 59, (2S,3R)-3-(1′-(2,5-bis(trifluoromethyl)phenyl)spiro[chroman-2,4′-piperidin]-7-yl)-3-cyclopropyl-2-methylpropanoic Acid], the half-maximal effective concentration (EC50) is 3.3 nM.

Regarding `C[C@H](C(=O)O)[C@H](c1ccc2c(c1)OC1(CC2)CCN(Cc2cc(C#N)ccc2C(F)(F)F)CC1)C1CC1` [Example 60, (2S,3R)-3-(1′-(5-cyano-2-(trifluoromethyl)benzyl)spiro[chroman-2,4′-piperidin]-7-yl)-3-cyclopropyl-2-methylpropanoic Acid], the half-maximal effective concentration (EC50) is 17.3 nM.

`C[C@H](C(=O)O)[C@H](c1ccc2c(c1)OC1(CC2)CCN(Cc2cc(Cl)cc3c2OC(C)(C)C3)CC1)C1CC1` [Example 61, sodium (2S3R)-3-(1′-((5-chloro-2,2-dimethyl-2,3-dihydrobenzofuran-7-yl)methyl)-spiro[chroman-2,4′-piperidin]-7-yl)-3-cyclopropyl-2-methylpropanoate]: the concentration for a half-maximal effect (EC50) was found to be 118 nM.

In the case of `C[C@H](C(=O)O)[C@H](c1ccc2c(c1)OC1(CC2)CCC(N(C)c2cc(C(F)(F)F)ccc2C(F)(F)F)CC1)C1CC1` (stereo partly drawn) [Example 66, (2S,3R)-3-(4′-((2,5-bis (trifluoromethyl)phenyl) (methyl)amino)spiro [chroman-2,1′-cyclohexan]-7-yl)-3-cyclopropyl-2-methylpropanoic acid], the EC50 stood at 4.27 nM.

The record behind these values is patent US10968232B2 (Merck Sharp & Dohme Corp., priority 2016, dated 2021).
